Ends that are not written are not given here.
Legend:
Escherichia coli = details: cited from earlier work
Source text: The 16–19 amino acid residue phylloseptins (PLSs) are a new emerging family of cationic antimicrobial peptides that belong to the dermaseptin superfamily, and whose members have been isolated from various genera of the Phyllomedusinae subfamily (Agalychnis, Phasmahyla, and Phyllomedusa), [10]–[16]. Like the archetypal dermaseptins (sensu stricto), these peptides seem to occur in multiple paralogous forms in each species with small differences in amino acid composition. Although only a few of these peptides were properly tested against various microorganisms, significant differences i ...

E. coli ML-35p [1] = assay: Time-kill assay; assay type: cell-based; details: MIC (25 µM) and two-fold above the MIC, in PBS; two experiments in triplicates
Method: The time-kill kinetics of phylloseptins-S against the Gram-negative bacteria E. coli ML-35p and the Gram-positive strain S. aureus ST1065 were evaluated as previously described with a dose of peptide corresponding to the MIC and two-fold above the MIC. Two experiments were realized in triplicates.
Figure 4 Time-kill curves of PLS-S1 (S1), -S2 (S2), and -S4 (S4). […] Controls correspond to bacteria incubated in PBS without peptide. The data are the means ± S.E.M. of two experiments carried out in triplicates.

E. coli ML-35p [2] = assay: Extracellular release of β-galactosidase; assay type: cell-based; details: 60 min incubation; PLS-S2 30 and 100 µM, PLS-S4 25 and 100 µM, dermaseptin B2 10 µM; ONPG added to supernatant
Method: (§1) PLS-induced permeabilization of the cytoplasmic membranes of S. aureus ST1065 and E. coli ML-35p was analyzed by incubating the bacteria, which express β-galactosidase constitutively, with different concentrations of the peptides (S. aureus ST1065: PLS-S1, -S2, and -S4; E. coli ML-35p: PLS-S2 and -S4) and measuring the time-dependent hydrolysis of the small chromogenic substrate o-nitrophenyl-β-D-galactopyranoside (ONPG) into o-nitrophenol (ONP) by cytoplasmic β-galactosidase (Fig. 5). The three peptides permeabilized the bacterial cytoplasmic membrane with increasing severity according to the time and the peptide concentration. […] To investigate the mechanism of permeabilization, E. coli ML-35p were incubated with PLS-S2 (30 and 100 µM) and PLS-S4 (25 and 100 µM) for 60 min and β-galactosidase activity was measured after removing bacteria by centrifugation and adding ONPG to the supernatant.
Figure 5 Kinetics of the cytoplasmic membrane leakage of E. coli ML-35p and S. aureus ST1065 after incubation with different concentrations of active phylloseptins-S. The membrane leakage was determined by measuring the production of o-nitrophenol at 405 nm following hydrolysis of ONPG by the cytoplasmic bacterial β-galactosidase. […] Results are expressed as the mean ± S.E.M of one representative experiment performed in triplicates.

E. coli ML-35p [3] = assay: Permeabilization of the cytoplasmic membrane (ONPG hydrolysis); assay type: cell-based; details: ONP production at 405 nm from ONPG; compared with 10 µM dermaseptin B2 as positive control
Method: PLS-induced permeabilization of the cytoplasmic plasma membranes of E. coli ML-35p and S. aureus ST1065 was measured by the rate of production of o-nitrophenol (ONP) at 405 nm, following hydrolysis of o-nitrophenyl β-D-galactopyranoside (ONPG) by β-galactosidase. Dermaseptin B2 (10 µM) and PBS were used as positive and negative controls, respectively.
as §1
Figure 5 Kinetics of the cytoplasmic membrane leakage of E. coli ML-35p and S. aureus ST1065 after incubation with different concentrations of active phylloseptins-S. The membrane leakage was determined by measuring the production of o-nitrophenol at 405 nm following hydrolysis of ONPG by the cytoplasmic bacterial β-galactosidase. Data are expressed as the mean ± S.E.M of two experiments carried out in triplicates after subtraction of the negative control values (w/o peptide) from the test values. Control panels display the kinetics obtained without peptide (negative control) and with 10 µM dermaseptin B2 (Drs B2, positive control). For E. coli ML-35p, the extracellular release of β-galactosidase was also measured as the production of o-nitrophenol at 405 nm after incubation (60 min) of E. coli cells with PLS-S2 (30 and 100 µM) and PLS-S4 (25 and 100 µM), removing of bacteria by centrifugation and adding ONPG to the supernatant. The negative (w/o peptide) and positive (10 µM Drs B2) controls are indicated for comparison. Results are expressed as the mean ± S.E.M of one representative experiment performed in triplicates.

Substance | MIC (Escherichia coli) [µM] | killing kinetics (in words) (E. coli ML-35p [1]) | extracellular release of β-galactosidase (in words) (E. coli ML-35p [2]) | permeabilization of the cytoplasmic membrane (in words) (E. coli ML-35p [3])
FLSLIPHIVSGVASIAKHF-NH2 [PLS-S1] | 80 | – | – | –
FLSMIPHIVSGVAALAKHL-NH2 [PLS-S4] | – | Almost similar rapid killing kinetics | dose-dependent release of β-galactosidase | as efficient as with dermaseptin-B2
FLSLIPHIVSGVASLAKHF-NH2 [PLS-S2] | – | Almost similar rapid killing kinetics | dose-dependent release of β-galactosidase | lower efficiency

Reference: paper PMC3742671, “Structure, Antimicrobial Activities and Mode of Interaction with Membranes of Bovel Phylloseptins from the Painted-Belly Leaf Frog, Phyllomedusa sauvagii” (PLoS ONE, 2013)
